Measurements published in publication PMC9669016, “First-in-human phase Ia study of the PI3Kα inhibitor CYH33 in patients with solid tumors” (Nature Communications, 2022).

Experiment: Clinical pharmacokinetics: plasma CYH33 and I27 by LC/MS/MS
Type: in vivo, human
Method: The PK characteristics of CYH33 and its active metabolite I27 were evaluated after single and multiple dose administrations. PK data were obtained from 37 patients from 7 dose cohorts: 1 mg (n = 1), 5 mg (n = 1), 10 mg (n = 2), 20 mg (n = 6), 30 mg (n = 12), 40 mg (n = 13), and 60 mg (n = 2). Intensive and sparse PK sampling was performed. Prior to initiating a continuous daily treatment cycle, the first 5 patients participated in a single dose PK treatment period with a 7-day washout in order to determine the terminal-phase half-life (t1/2) of CYH33 and its active metabolite I27. Based on the single dose PK data for CYH33 of the first 5 patients at doses of 1, 5, 10 and 20 mg, the PK and metabolic characteristics of CYH33 and I27 were evaluated. Combined with the pre-specified rules in the protocol and deliberation from the SMC, subsequent patients directly entered the continuous dose phase.
Blood samples for PK evaluation were collected at: (1) during the single dose phase: on day 1 pre-dose and 0.5, 1, 2, 4, 8, 12, 24, 36, 48, and 72 h post-dose; (2) during the continuous dose phase: C1D1/Cycle 1 Day 28 pre-dose, and 0.5, 1, 2, 3, 4, 6, 8, 12, and 24 h post-dose; and C1D8/Day 15 pre-dose. Plasma concentrations of CYH33 and I27 were analyzed using a liquid chromatography-tandem mass spectrometry (LC/MS/MS) assay (Shimadzu Corporation, LC-30AD) with a lower limit of quantification (LLOQ) of 2.585 ng/mL and 1.0 ng/mL for CYH33 and I27, respectively. […] Blood samples for measuring the FBG level were collected within 30 min before dosing on C1D1, C1D15, and on the first day of subsequent treatment cycles.

[1] = CYH33, Cycle 1 Day 1, 5 mg (n = 1)
[2] = CYH33, Cycle 1 Day 1, 10 mg (n = 2)
[3] = CYH33, Cycle 1 Day 1, 20 mg (n = 5)

COC(=O)Nc1cc(C(F)(F)F)c(-c2nc(N3CCOCC3)c3cc(CN4CCN(S(C)(=O)=O)CC4)cn3n2)cn1 [CYH33, methyl (5-(6-((4-(methylsulfonyl)piperazin-1-yl)methyl)−4-morpholinopyrrolo[2,1-f][1,2,4]triazin-2-yl)−4-(trifluoromethyl)pyridin-2-yl)carbamate]
CYH33 plasma concentration, mean (C1D1, 1 mg, 1 h): 4.6 ng/mL | CYH33 plasma concentration, mean (C1D1, 1 mg, 2 h): 3.8 ng/mL | CYH33 plasma concentration, mean (C1D1, 1 mg, 4 h): 2.9 ng/mL | CYH33 plasma concentration, mean (C1D1, 1 mg, 8 h): 1.8 ng/mL | CYH33 plasma concentration, mean (C1D1, 1 mg, 12 h): 0 ng/mL | CYH33 plasma concentration, mean (C1D1, 1 mg, 36 h): 0 ng/mL | CYH33 plasma concentration, mean (C1D1, 1 mg, 48 h): 0 ng/mL | CYH33 plasma concentration, mean (C1D1, 1 mg, 72 h): 0 ng/mL | CYH33 plasma concentration, mean (C1D1, 5 mg, 1 h): 18.1 ng/mL | CYH33 plasma concentration, mean (C1D1, 5 mg, 2 h): 24.6 ng/mL | CYH33 plasma concentration, mean (C1D1, 5 mg, 4 h): 19.5 ng/mL | CYH33 plasma concentration, mean (C1D1, 5 mg, 8 h): 11.8 ng/mL | CYH33 plasma concentration, mean (C1D1, 5 mg, 12 h): 9.7 ng/mL | CYH33 plasma concentration, mean (C1D1, 5 mg, 36 h): 3.8 ng/mL | CYH33 plasma concentration, mean (C1D1, 5 mg, 48 h): 2.5 ng/mL | CYH33 plasma concentration, mean (C1D1, 10 mg, 1 h): 30.2 ng/mL | CYH33 plasma concentration, mean (C1D1, 10 mg, 2 h): 35.3 ng/mL | CYH33 plasma concentration, mean (C1D1, 10 mg, 8 h): 30.2 ng/mL | CYH33 plasma concentration, mean (C1D1, 10 mg, 12 h): 23.9 ng/mL | CYH33 plasma concentration, mean (C1D1, 10 mg, 36 h): 9.3 ng/mL | CYH33 plasma concentration, mean (C1D1, 10 mg, 48 h): 6.8 ng/mL | CYH33 plasma concentration, mean (C1D1, 20 mg, 0.5 h, in ng/mL): 26.7325 | CYH33 plasma concentration, mean (C1D1, 20 mg, 1 h, in ng/mL): 44.192 | CYH33 plasma concentration, mean (C1D1, 20 mg, 2 h, in ng/mL): 54.18 | CYH33 plasma concentration, mean (C1D1, 20 mg, 3 h, in ng/mL): 46.425 | CYH33 plasma concentration, mean (C1D1, 20 mg, 6 h, in ng/mL): 32.9075 | CYH33 plasma concentration, mean (C1D1, 20 mg, 8 h, in ng/mL): 36.04 | CYH33 plasma concentration, mean (C1D1, 20 mg, 36 h): 23.6 ng/mL | CYH33 plasma concentration, mean (C1D1, 20 mg, 48 h): 15.8 ng/mL | CYH33 plasma concentration, mean (C1D1, 30 mg, 0.5 h, in ng/mL): 24.6458 | CYH33 plasma concentration, mean (C1D1, 30 mg, 1 h, in ng/mL): 57.5417 | CYH33 plasma concentration, mean (C1D1, 30 mg, 2 h, in ng/mL): 79.1167 | CYH33 plasma concentration, mean (C1D1, 30 mg, 3 h, in ng/mL): 79.1917 | CYH33 plasma concentration, mean (C1D1, 30 mg, 6 h, in ng/mL): 64.9583 | CYH33 plasma concentration, mean (C1D1, 30 mg, 8 h, in ng/mL): 60.1583 | CYH33 plasma concentration, mean (C1D1, 30 mg, 24 h, in ng/mL): 43.65 | CYH33 plasma concentration, mean (C1D1, 30 mg, 48 h): 42.5 ng/mL | CYH33 plasma concentration, mean (C1D1, 40 mg, 1 h, in ng/mL): 78.4333 | CYH33 plasma concentration, mean (C1D1, 40 mg, 2 h): 87 ng/mL | CYH33 plasma concentration, mean (C1D1, 40 mg, 3 h): 88.2 ng/mL | CYH33 plasma concentration, mean (C1D1, 40 mg, 4 h, in ng/mL): 78.0667 | CYH33 plasma concentration, mean (C1D1, 40 mg, 6 h, in ng/mL): 62.5333 | CYH33 plasma concentration, mean (C1D1, 40 mg, 8 h, in ng/mL): 57.6333 | CYH33 plasma concentration, mean (C1D1, 40 mg, 12 h, in ng/mL): 47.8667 | CYH33 plasma concentration, mean (C1D1, 40 mg, 48 h): 45.2 ng/mL | CYH33 plasma concentration, mean (C1D1, 60 mg, 1 h): 55.6 ng/mL | CYH33 plasma concentration, mean (C1D1, 60 mg, 2 h, in ng/mL): 86.475 | CYH33 plasma concentration, mean (C1D1, 60 mg, 3 h, in ng/mL): 95.325 | CYH33 plasma concentration, mean (C1D1, 60 mg, 4 h, in ng/mL): 109.05 | CYH33 plasma concentration, mean (C1D1, 60 mg, 6 h, in ng/mL): 98.025 | CYH33 plasma concentration, mean (C1D1, 60 mg, 8 h): 96.2 ng/mL | CYH33 plasma concentration, mean (C1D1, 60 mg, 12 h, in ng/mL): 78.575 | CYH33 plasma concentration, mean (C1D1, 60 mg, 48 h): 61.4 ng/mL | CYH33 plasma concentration, mean (C1D28, 1 mg, 0.5 h): 2.38 ng/mL | CYH33 plasma concentration, mean (C1D28, 1 mg, 1 h): 4.57 ng/mL | CYH33 plasma concentration, mean (C1D28, 1 mg, 2 h): 4.43 ng/mL | CYH33 plasma concentration, mean (C1D28, 1 mg, 8 h): 2.84 ng/mL | CYH33 plasma concentration, mean (C1D28, 1 mg, 12 h): 1.9 ng/mL | CYH33 plasma concentration, mean (C1D28, 1 mg, 24 h): 0 ng/mL | CYH33 plasma concentration, mean (C1D28, 5 mg, 0.5 h): 48.6 ng/mL | CYH33 plasma concentration, mean (C1D28, 5 mg, 1 h): 56.2 ng/mL | CYH33 plasma concentration, mean (C1D28, 5 mg, 2 h): 43 ng/mL | CYH33 plasma concentration, mean (C1D28, 5 mg, 8 h): 23.5 ng/mL | CYH33 plasma concentration, mean (C1D28, 5 mg, 12 h): 20 ng/mL | CYH33 plasma concentration, mean (C1D28, 5 mg, 24 h): 15.1 ng/mL | CYH33 plasma concentration, mean (C1D28, 10 mg, 0.5 h): 49.9 ng/mL | CYH33 plasma concentration, mean (C1D28, 10 mg, 1 h): 61.4 ng/mL | CYH33 plasma concentration, mean (C1D28, 10 mg, 2 h): 77.5 ng/mL | CYH33 plasma concentration, mean (C1D28, 10 mg, 8 h): 55.7 ng/mL | CYH33 plasma concentration, mean (C1D28, 10 mg, 12 h): 47.9 ng/mL | CYH33 plasma concentration, mean (C1D28, 10 mg, 24 h): 35.4 ng/mL | CYH33 plasma concentration, mean (C1D28, 20 mg, 0.5 h, in ng/mL): 110.84 | CYH33 plasma concentration, mean (C1D28, 20 mg, 1 h): 134 ng/mL | CYH33 plasma concentration, mean (C1D28, 20 mg, 2 h, in ng/mL): 135.8 | CYH33 plasma concentration, mean (C1D28, 20 mg, 6 h, in ng/mL): 117.175 | CYH33 plasma concentration, mean (C1D28, 20 mg, 8 h, in ng/mL): 120.72 | CYH33 plasma concentration, mean (C1D28, 20 mg, 12 h, in ng/mL): 106.84 | CYH33 plasma concentration, mean (C1D28, 20 mg, 24 h, in ng/mL): 83.68 | CYH33 plasma concentration, mean (C1D28, 30 mg, 0.5 h, in ng/mL): 149.367 | CYH33 plasma concentration, mean (C1D28, 30 mg, 1 h, in ng/mL): 154.011 | CYH33 plasma concentration, mean (C1D28, 30 mg, 2 h, in ng/mL): 172.178 | CYH33 plasma concentration, mean (C1D28, 30 mg, 6 h, in ng/mL): 163.956 | CYH33 plasma concentration, mean (C1D28, 30 mg, 8 h, in ng/mL): 162.122 | CYH33 plasma concentration, mean (C1D28, 30 mg, 12 h, in ng/mL): 143.189 | CYH33 plasma concentration, mean (C1D28, 40 mg, 0.5 h, in ng/mL): 167.057 | CYH33 plasma concentration, mean (C1D28, 40 mg, 1 h, in ng/mL): 191.129 | CYH33 plasma concentration, mean (C1D28, 40 mg, 2 h, in ng/mL): 206.714 | CYH33 plasma concentration, mean (C1D28, 40 mg, 3 h, in ng/mL): 262.333 | CYH33 plasma concentration, mean (C1D28, 40 mg, 6 h, in ng/mL): 245.333 | CYH33 plasma concentration, mean (C1D28, 40 mg, 8 h, in ng/mL): 166.029 | CYH33 plasma concentration, mean (C1D28, 40 mg, 12 h, in ng/mL): 158.629 | CYH33 plasma concentration, mean (C1D28, 40 mg, 24 h, in ng/mL): 134.657 | CYH33 plasma concentration, mean (C1D28, 60 mg, 0.5 h): 155 ng/mL | CYH33 plasma concentration, mean (C1D28, 60 mg, 1 h): 184 ng/mL | CYH33 plasma concentration, mean (C1D28, 60 mg, 2 h): 198 ng/mL | CYH33 plasma concentration, mean (C1D28, 60 mg, 3 h): 193 ng/mL | CYH33 plasma concentration, mean (C1D28, 60 mg, 6 h): 205 ng/mL | CYH33 plasma concentration, mean (C1D28, 60 mg, 8 h): 181 ng/mL | CYH33 plasma concentration, mean (C1D28, 60 mg, 12 h): 163 ng/mL | CYH33 plasma concentration, mean (C1D28, 60 mg, 24 h): 135 ng/mL | CL/F, mean (CV%) [1]: 11.6 L/h | V/F, mean (CV%) [1]: 322.8 L | CL/F, mean (CV%) [2]: 9.2 (11) L/h | V/F, mean (CV%) [2]: 263.2 (24) L | CL/F, mean (CV%) [3]: 9.1 L/h | V/F, mean (CV%) [3]: 274.2 L | CLss/F, mean (CYH33, Cycle 1 Day 28, 1 mg (n=1)): 19.4 L/h
